According to patent US10954255B2, “Phospholipid analogues” (Karl-Franzens-Universitaet Graz, priority 2018, dated 2021):
Entries after “also recorded” stand apart in the source; their conditions may differ.

What was measured:
[1] = system: LPS-induced chemokine KC; assay: Induction of chemokine KC in plasma of mice injected with LPS; assay type: in vivo; conditions: phospholipid 200 μg/mouse i.p. with LPS 20 μg/mouse, blood after 2 and 4 hrs, FIG. 2
Procedure: Experiments were performed according to Austrian animal rights law using female C57BL/6J mice (Jackson Laboratories, Germany) of 20 g body weight. Mice were injected i.p. with 200 μl of either with saline, phospholipid (200 μg/mouse), LPS (Escherichia coli O55:B5, 20 μg/mouse) or a combination of LPS and the phospholipid. After 2 and 4 hrs blood was taken retroorbitaly and placed into Eppendorf tubes containing EDTA. After centrifugation of cells, plasma was collected and analyzed by ELISA for murine KC.

[2] = system: human pulmonary artery endothelial monolayers; assay: Endothelial monolayer permeability, transendothelial electrical resistance (TER); assay type: cell-based; conditions: for endothelial barrier-protective effect compared with free iloprost (TER): 0.5 μM, post-treatment 15 min or 5 hrs after LPS 200 ng/ml, monitored over 20 hours, FIG. 4
Procedure: The cellular barrier properties were analyzed by measurements of transendothelial electrical resistance (TER) across confluent human pulmonary artery endothelial monolayers using an electrical cell-substrate impedance sensing system (Applied Biophysics, USA) as previously described (Birukova A A et al., Am. J. Physiol. Lung Cell. Mol. Physiol. 2006, 290(3):L540-548; Birukova A A et al. FASEB J. 2004, 18(15):1879-1890).

[3] = system: Human ECs (HUVECs and HUVECtert); assay: Cell survival test, serum deprivation; assay type: cell-based; conditions: M199 without serum, 24 to 49 hrs, FIG. 6-8
Procedure: Human ECs (HUVECs and HUVECtert) were cultured Nunclon™ Delta surface flasks (Bartelt; Graz, Austria) in the medium M199 (Gibco) supplemented with 20% fetal calf serum (FCS, Gibco; Carlsbad, Calif., USA), penicillin-streptomycin-amphotericin B (PSF, Lonza; Basel, Switzerland), glutamine (Lonza) and ECGS-heparin (PromoCell; Heidelberg, Germany) in the 95% humidified atmosphere with 5% CO2 at 37° C. For stimulation of cells, they were seeded in the same medium in 96-well Nunclon™ Delta plates (Bartelt). On the day 2, the full medium was exchanged to M199 medium without serum but containing lipids (100 μl per well). In experiments on cell survival against hydrogen peroxide, camptothecin or doxorubicin, the full medium was exchanged to M199 containing 7% FCS and OxPAPC at 40 μg/ml or 50 μg/ml added as a two-fold concentrated solution (50 μl per well). After 20 to 30 min preincubation, toxic agents were added also as two-fold concentrated solutions in M199/7% FCS (50 μl per well). After 16 to 72 hrs of cell incubation at 37° C. and 5% CO2 in 95% humidity, either a nuclei counting of the remained cells or an XTT assay were performed. For the nuclei counting, the medium containing dead cells was aspirated and a Hoechst 33342 solution at the concentration of 1 μg/ml in PBS containing Ca^2+ and Mg^2+ (50 μl per well) was added. After at least 20 min incubation of cells at 37° C. in the cell culture incubator, the stained nuclei were counted using the EnSight plate reader (Perkin-Elmer; Waltham, Mass., USA). An XTT assay with the incubation time of 2 hrs was performed as described (Oskolkova, Godschachner and Bochkov, Inflammation 2017; 40(2): 530-536).
OxPLs protect endothelial cells (ECs) against serum deprivation. ECs were seeded in full M199 medium containing 20% serum. On the day 2, the medium was exchanged to M199 without serum and containing phospholipids at increasing concentrations. After 48 hrs, nuclei of remaining cells were stained by Hoechst and counted. Cells treated with 20% FCS serve as positive and with PBS as negative controls, respectively.
ECs were treated as described in Example 13. After 24 hrs, nuclei of remaining cells were stained by Hoechst 33342 and counted. Cells treated with OxPAPC and 20% FCS serve as positive and with PBS as negative controls, respectively.
ECs were treated with increasing concentrations of OxAA as described in Example 13. After 49 hrs, nuclei of remaining cells were stained by Hoechst 33342 and counted. Cells treated with 20% FCS or with 20 μM OxPAPC serve as positive and with PBS as negative controls, respectively.

[4] = system: LPS-induced lung injury; assay: LPS-induced lung injury and vascular barrier dysfunction in mice (BAL, TNFα, optical imaging); assay type: in vivo; conditions: 10 μg/kg i.v. concurrently and 5 hrs after LPS i.t., day 1 and day 3, FIG. 5
Procedure: Eight-week old C57B1 mice were purchased from Jackson Laboratories (Bar Harbor, USA). Animals were handled according to the National Institutes of Health Guide for the Care and Use of Laboratory Animals. Bacterial lipopolysaccharide (LPS, 0.63 mg/kg body wt; Escherichia coli O55:B5) or sterile water was injected intratracheally in a small volume (20-30 μl) using a 20-gauge catheter (Exelint International, USA). Iloprost (10 μg/kg), ILO-PC (10 μg/kg) or sterile saline solution was administrated concurrently and 5 hrs after LPS instillation by intravenous injection in the external jugular vein. Animals were sacrificed at day-1 or day-3 by exsanguination under anesthesia. BAL was performed using 1 ml of sterile Hanks balanced salt buffer and measurements of cell count and protein concentration were conducted as previously described (Fu P et al., Eur. Respir. J. 2009, 33:612-624). […]
In vivo optical imaging: Mice were injected with 100 μl of 2 nmol Angiosense 680 EX (a vascular fluorescent blood pool imaging agent purchased from PerkinElmer, USA), intravenously via tail vein. Fluorescence optical imaging was performed in the Integrated Small Animal Imaging Research Resource (iSAIRR) at the University of Chicago using Xenogen IVIS 200 Spectrum (Caliper Life Sciences, USA). […]

CCCCCCCCCCCCCCCCOCC(COP(=O)(O)OCC[N+](C)(C)C)NC(=O)CCC/C=C\C[C@H]1C(=O)C[C@@H](O)[C@@H]1/C=C/[C@@H](O)CCCCC (stereo partly shown) [KFU-PGE2, 1-O-Hexadecyl-2-deoxy-2-(prostaglandin E2)amino-sn-glycero-3-phosphocholine]
induction of inflammatory chemokine KC in plasma (LPS-induced inflammation in vivo) [1]: inhibits induction of inflammatory chemokine KC
endothelial barrier protection/enhancement (TER) ([2]; cultured endothelial cells, two concentrations, FIG. 3): protects endothelial cell barrier
protection of ECs against serum deprivation (nuclei counting, Hoechst 33342) [3]: protective effects

CCCCCCCCCCCCCCCCOCC(COP(=O)(O)OCC[N+](C)(C)C)NC(=O)CCC/C=C\C[C@@H]1[C@@H](/C=C/[C@@H](O)CCCCC)[C@H](O)C[C@@H]1O (stereo partly drawn) [KFU-PGF2α, 1-O-Hexadecyl-2-deoxy-2-(prostaglandin F2α)amino-sn-glycero-3-phosphocholine]
protection of ECs against serum deprivation (nuclei counting, Hoechst 33342) [3]: protective effects

CCCCCCCCCCCCCCCCOCC(COP(=O)(O)OCC[N+](C)(C)C)NC(=O)CCC/C=C\C[C@@H]1C(=O)C=C[C@@H]1/C=C/[C@@H](O)CCCCC (stereo partly shown) [KFU-iPGA2, 1-O-Hexadecyl-2-deoxy-2-(8-iso-prostaglandin A2)amino-sn-glycero-3-phosphocholine]
protection of ECs against serum deprivation (nuclei counting, Hoechst 33342) ([3]; listed as iPGA2-NH-PC): protective effects; also recorded: protect ECs against serum deprivation

CC#CCC(C)[C@H](O)/C=C/[C@@H]1C2C/C(=C/CCCC(=O)NC(COCCCCCCCCCCCCCCCC)COP(=O)(O)OCC[N+](C)(C)C)CC2C[C@H]1O (stereo partly shown) [KFU-iloprost, 1-O-Hexadecyl-2-deoxy-2-(iloprost)amino-sn-glycero-3-phosphocholine]
endothelial barrier-protective effect compared with free iloprost (TER) [2]: stronger endothelial barrier-protective effect than free Iloprost
endothelial barrier-protective effect compared with free iloprost (TER) ([2]; listed as KFU-conjugated iloprost): stronger and more prolonged barrier-protective activity as compared to free iloprost
protection from LPS-induced lung injury, barrier dysfunction and edema compared with free iloprost [4]: better protection from edema in vivo as compared to free molecule
protection from LPS-induced lung injury, barrier dysfunction and edema compared with free iloprost ([4]; listed as KFU-ILO): better protective response on LPS-induced lung injury and barrier dysfunction compared to a free molecule

CCCCC[C@H](O)/C=C/[C@H]1C=CC(=O)[C@H]1C/C=C\CCCC(=O)O [iPGA2, 8-iso-prostaglandin A2, reference compound]
protection of ECs against serum deprivation (nuclei counting, Hoechst 33342) [3]: not active; also recorded: not protective
